Results: patent US6054435A, “6-O-substituted macrolides having antibacterial activity” (priority 1999, dated 2000)
Values after ≈ are worked out from the molar mass of the structure shown.

Experiments:
Test in all cases: in vitro antibacterial activity (MIC), agar dilution
Assay type in all cases: cell-based
[1] = test system: Staphylococcus aureus 1775; settings: organism code GG; BHI agar, 35-37° C., 20 to 24 hours; unit assumed
Experimental: (§1) Representative compounds of the present invention were assayed in vitro for antibacterial activity as follows: Twelve petri dishes containing successive aqueous dilutions of the test compound mixed with 10 mL of sterilized Brain Heart Infusion (BHI) agar (Difco 0418-01-5) were prepared. Each plate was inoculated with 1:100 (or 1:10 for slow-growing strains, such as Micrococcus and Streptococcus) dilutions of up to 32 different microorganisms, using a Steers replicator block. […] In addition, a control plate, using BHI agar containing no test compound, was prepared and incubated at the beginning and end of each test.
(§2) An additional plate containing a compound having known susceptibility patterns for the organisms being tested and belonging to the same antibiotic class as the test compound was also prepared and incubated as a further control, as well as to provide test-to-test comparability.
(§3) After incubation, each plate was visually inspected. The minimum inhibitory concentration (MIC) was defined as the lowest concentration of drug yielding no growth, a slight haze, or sparsely isolated colonies on the inoculum spot as compared to the growth control.

[2] = test system: Staphylococcus epidermidis 3519; settings: organism code HH; BHI agar, 35-37° C., 20 to 24 hours; unit assumed
Experimental: as §1, §2, §3

[3] = test system: Streptococcus Pneumonia 5649; settings: organism code ZZA; BHI agar, 35-37° C., 20 to 24 hours; unit assumed
Experimental: as §1, §2, §3

[4] = test system: Streptococcus Pneumonia 5979; settings: organism code ZZ; BHI agar, 35-37° C., 20 to 24 hours; unit assumed
Experimental: as §1, §2, §3

[5] = test system: Staphylococcus aureus CMX 642A; settings: organism code DD; BHI agar, 35-37° C., 20 to 24 hours; unit assumed
Experimental: as §1, §2, §3

[6] = test system: Staphylococcus aureus NCTC10649M; settings: organism code EE; BHI agar, 35-37° C., 20 to 24 hours; unit assumed
Experimental: as §1, §2, §3

[7] = test system: Micrococcus luteus ATCC 4698; settings: organism code PP; BHI agar, 35-37° C., 20 to 24 hours; unit assumed
Experimental: as §1, §2, §3

Candida albicans CCH 442 = settings: organism code TT; BHI agar, 35-37° C., 20 to 24 hours; unit assumed
Experimental: as §1, §2, §3

[8] = test system: Streptococcus Pneumonia GYR 1171; settings: organism code YY; BHI agar, 35-37° C., 20 to 24 hours; unit assumed
Experimental: as §1, §2, §3

[9] = test system: Streptococcus pyogenes 930; settings: organism code MM; BHI agar, 35-37° C., 20 to 24 hours; unit assumed
Experimental: as §1, §2, §3

Escherichia coli DC-2 = settings: organism code SS; BHI agar, 35-37° C., 20 to 24 hours; unit assumed
Experimental: as §1, §2, §3

[10] = test system: Staphylococcus aureus A5177; settings: organism code BB; BHI agar, 35-37° C., 20 to 24 hours; unit assumed
Experimental: as §1, §2, §3

[11] = test system: Nocardia Asteroides ATCC9970; settings: organism code VV; BHI agar, 35-37° C., 20 to 24 hours; unit assumed
Experimental: as §1, §2, §3

[12] = test system: Streptococcus Pneumonia ATCC6303; settings: organism code XX; BHI agar, 35-37° C., 20 to 24 hours; unit assumed
Experimental: as §1, §2, §3

Escherichia coli SS = settings: organism code RR; BHI agar, 35-37° C., 20 to 24 hours; unit assumed
Experimental: as §1, §2, §3

[13] = test system: Mycobacterium smegmatis ATCC 114; settings: organism code UU; BHI agar, 35-37° C., 20 to 24 hours; unit assumed
Experimental: as §1, §2, §3

[14] = test system: Streptococcus bovis A-5169; settings: organism code JJ; BHI agar, 35-37° C., 20 to 24 hours; unit assumed
Experimental: as §1, §2, §3

[15] = test system: Micrococcus luteus ATCC 9341; settings: organism code OO; BHI agar, 35-37° C., 20 to 24 hours; unit assumed
Experimental: as §1, §2, §3

Escherichia coli JUHL = settings: organism code QQ; BHI agar, 35-37° C., 20 to 24 hours; unit assumed
Experimental: as §1, §2, §3

[16] = test system: Haemophilis Influenzae DILL AMP R; settings: organism code WW; BHI agar, 35-37° C., 20 to 24 hours; unit assumed
Experimental: as §1, §2, §3

[17] = test system: Staphylococcus aureus ATCC 6538P; settings: organism code AA; BHI agar, 35-37° C., 20 to 24 hours; unit assumed
Experimental: as §1, §2, §3

[18] = test system: Streptococcus pyogenes EES61; settings: organism code LL; BHI agar, 35-37° C., 20 to 24 hours; unit assumed
Experimental: as §1, §2, §3

[19] = test system: Streptococcus agalactiae CMX 508; settings: organism code KK; BHI agar, 35-37° C., 20 to 24 hours; unit assumed
Experimental: as §1, §2, §3

[20] = test system: Streptococcus pyogenes PIU 2548; settings: organism code NN; BHI agar, 35-37° C., 20 to 24 hours; unit assumed
Experimental: as §1, §2, §3

[21] = test system: Staphylococcus aureus A-5278; settings: organism code CC; BHI agar, 35-37° C., 20 to 24 hours; unit assumed
Experimental: as §1, §2, §3

[22] = test system: Staphylococcus aureus CMX 553; settings: organism code FF; BHI agar, 35-37° C., 20 to 24 hours; unit assumed
Experimental: as §1, §2, §3

[23] = test system: Enterococcus faecium ATCC 8043; settings: organism code II; BHI agar, 35-37° C., 20 to 24 hours; unit assumed
Experimental: as §1, §2, §3

| Structure (SMILES) | MIC [1] | MIC [2] | MIC [4] | MIC [5] | MIC [6] | MIC [7] | MIC (Candida albicans CCH 442) | MIC [8] | MIC [9] | MIC (Escherichia coli DC-2) | MIC [10] | MIC [11] | MIC [12] | MIC (Escherichia coli SS) | MIC [13] | MIC [14] | MIC [15] | MIC (Escherichia coli JUHL) | MIC [16] | MIC [17] | also measured |
| --- | --- | --- | --- | --- | --- | --- | --- | --- | --- | --- | --- | --- | --- | --- | --- | --- | --- | --- | --- | --- | --- |
| CC[C@H]1OC(=O)[C@H](C)C(=O)[C@H](C)[C@@H](O[C@@H]2O[C@H](C)C[C@H](N(C)C)[C@H]2O)[C@](C)(OCC#Cc2ccc(-c3cccc(OC)c3)s2)C[C@@H](C)C(=O)[C@H](C)[C@H]2NC(=O)O[C@@]21C [Example 14] | 50 µg/mL (≈ 60.6 µM) | 0.1 µg/mL (≈ 0.121 µM) | 1 µg/mL (≈ 1.21 µM) | 0.1 µg/mL (≈ 0.121 µM) | 0.1 µg/mL (≈ 0.121 µM) | 0.02 µg/mL (≈ 0.0242 µM) | > 100 µg/mL | 0.03 µg/mL (≈ 0.0364 µM) | 1.56 µg/mL (≈ 1.89 µM) | > 100 µg/mL | 0.1 µg/mL (≈ 0.121 µM) | 0.1 µg/mL (≈ 0.121 µM) | 0.03 µg/mL (≈ 0.0364 µM) | 0.39 µg/mL (≈ 0.473 µM) | 0.2 µg/mL (≈ 0.242 µM) | ≤ 0.005 µg/mL | 0.01 µg/mL (≈ 0.0121 µM) | > 100 µg/mL | 2 µg/mL (≈ 2.42 µM) | 0.1 µg/mL (≈ 0.121 µM) | MIC [3]: 0.25 µg/mL (≈ 0.303 µM); MIC [18]: 0.01 µg/mL (≈ 0.0121 µM); MIC [19]: 0.01 µg/mL (≈ 0.0121 µM); MIC [20]: 0.1 µg/mL (≈ 0.121 µM); MIC [21]: > 100 µg/mL; MIC [22]: 0.1 µg/mL (≈ 0.121 µM) |
| CC[C@H]1OC(=O)[C@H](C)C(=O)[C@H](C)[C@@H](O[C@@H]2O[C@H](C)C[C@H](N(C)C)[C@H]2O)[C@](C)(OC/C=C/c2cncc(-c3ccccn3)c2)C[C@@H](C)C(=O)[C@H](C)[C@H]2NC(=O)O[C@@]21C [Example 43] | > 100 µg/mL | 0.1 µg/mL (≈ 0.126 µM) | 64 µg/mL (≈ 80.7 µM) | 0.1 µg/mL (≈ 0.126 µM) | 0.2 µg/mL (≈ 0.252 µM) | 0.2 µg/mL (≈ 0.252 µM) | > 100 µg/mL | ≤ 0.004 µg/mL | 25 µg/mL (≈ 31.5 µM) | 25 µg/mL (≈ 31.5 µM) | 0.05 µg/mL (≈ 0.0631 µM) | 0.05 µg/mL (≈ 0.0631 µM) | ≤ 0.004 µg/mL | 0.39 µg/mL (≈ 0.492 µM) | 0.78 µg/mL (≈ 0.984 µM) | 0.02 µg/mL (≈ 0.0252 µM) | 0.02 µg/mL (≈ 0.0252 µM) | 50 µg/mL (≈ 63.1 µM) | 2 µg/mL (≈ 2.52 µM) | 0.05 µg/mL (≈ 0.0631 µM) | MIC [23]: 0.05 µg/mL (≈ 0.0631 µM); MIC [18]: 0.02 µg/mL (≈ 0.0252 µM); MIC [19]: 0.05 µg/mL (≈ 0.0631 µM); MIC [20]: 0.2 µg/mL (≈ 0.252 µM); MIC [21]: > 100 µg/mL; MIC [22]: 0.05 µg/mL (≈ 0.0631 µM) |
| CC[C@H]1OC(=O)[C@H](C)C(=O)[C@H](C)[C@@H](O[C@@H]2O[C@H](C)C[C@H](N(C)C)[C@H]2O)[C@](C)(OC/C=C/c2cncc(-c3cncnc3)c2)C[C@@H](C)C(=O)[C@H](C)[C@H]2NC(=O)O[C@@]21C [Example 45] | > 100 µg/mL | 0.1 µg/mL (≈ 0.126 µM) | > 128 µg/mL | 0.1 µg/mL (≈ 0.126 µM) | 0.2 µg/mL (≈ 0.252 µM) | 0.1 µg/mL (≈ 0.126 µM) | > 100 µg/mL | ≤ 0.004 µg/mL | 25 µg/mL (≈ 31.5 µM) | 25 µg/mL (≈ 31.5 µM) | 0.05 µg/mL (≈ 0.063 µM) | 0.05 µg/mL (≈ 0.063 µM) | 0.008 µg/mL (≈ 0.0101 µM) | 0.39 µg/mL (≈ 0.491 µM) | 1.56 µg/mL (≈ 1.96 µM) | ≤ 0.005 µg/mL | 0.01 µg/mL (≈ 0.0126 µM) | 50 µg/mL (≈ 63 µM) | 2 µg/mL (≈ 2.52 µM) | 0.05 µg/mL (≈ 0.063 µM) | MIC [23]: 0.05 µg/mL (≈ 0.063 µM); MIC [18]: ≤ 0.005 µg/mL; MIC [19]: ≤ 0.005 µg/mL; MIC [20]: 0.39 µg/mL (≈ 0.491 µM); MIC [21]: > 100 µg/mL; MIC [22]: 0.05 µg/mL (≈ 0.063 µM) |
| CC[C@H]1OC(=O)[C@H](C)C(=O)[C@H](C)[C@@H](O[C@@H]2O[C@H](C)C[C@H](N(C)C)[C@H]2O)[C@](C)(OC/C=C/c2cncc(-c3cnc4ccccc4c3)c2)C[C@@H](C)C(=O)[C@H](C)[C@H]2NC(=O)O[C@@]21C [Example 44] | > 100 µg/mL | 0.1 µg/mL (≈ 0.119 µM) | 8 µg/mL (≈ 9.49 µM) | 0.1 µg/mL (≈ 0.119 µM) | 0.2 µg/mL (≈ 0.237 µM) | 0.1 µg/mL (≈ 0.119 µM) | > 100 µg/mL | ≤ 0.004 µg/mL | 6.2 µg/mL (≈ 7.35 µM) | 50 µg/mL (≈ 59.3 µM) | 0.1 µg/mL (≈ 0.119 µM) | 0.1 µg/mL (≈ 0.119 µM) | ≤ 0.004 µg/mL | 0.2 µg/mL (≈ 0.237 µM) | 0.39 µg/mL (≈ 0.463 µM) | 0.01 µg/mL (≈ 0.0119 µM) | 0.01 µg/mL (≈ 0.0119 µM) | 100 µg/mL (≈ 119 µM) | 2 µg/mL (≈ 2.37 µM) | 0.1 µg/mL (≈ 0.119 µM) | MIC [23]: 0.05 µg/mL (≈ 0.0593 µM); MIC [18]: 0.01 µg/mL (≈ 0.0119 µM); MIC [19]: 0.05 µg/mL (≈ 0.0593 µM); MIC [20]: 0.1 µg/mL (≈ 0.119 µM); MIC [21]: > 100 µg/mL; MIC [22]: 0.05 µg/mL (≈ 0.0593 µM) |
